Results from patent US9102752B2, “Peptide vaccine for prevention and immunotherapy of dementia of the Alzheimer's type” (United Biomedical, Inc., priority 2013, dated 2015).

Assays:
[1] = test system: anti-Aβ antibodies in sera from vaccinated baboons; assay: Epitope mapping, 10-mer peptide-based ELISA with sera from vaccinated baboons; settings: peptide as plate coating
Protocol: Fine specificity analyses of anti-Aβ antibodies in immunized hosts or vaccines were determined by epitope mapping.
These nested peptides were used individually to coat microtiter wells as solid-phase immunoadsorbents for ELISA tests. The positive control ELISA plate was coated with Aβ1-28. They were tested for antibody binding with the sera from the four immunized baboons, from weeks 0, 10, 84 and 111. Baboon sera were serially diluted and assayed on plates coated with a 10-mer peptide at 5 ug/mL.

baboon anti-Aβ antibody = assay: Epitope mapping by competitive inhibition ELISA with hyperimmune baboon sera; assay type: binding, baboons
[2] = peptide concentration 0.5 μg/mL

| Substance | ELISA Titer titers (Log10) ([1]; 0 weeks post immunization) | ELISA Titer titers (Log10) ([1]; 10 weeks post immunization) | ELISA Titer titers (Log10) ([1]; 84 weeks post immunization) | ELISA Titer titers (Log10) ([1]; 111 weeks post immunization) | Percent (%) Inhibition ELISA after peptide pre-absorption of sera (baboon anti-Aβ antibody; [2]) | Percent (%) Inhibition ELISA after peptide pre-absorption of sera (baboon anti-Aβ antibody; peptide concentration 1 μg/mL) | Percent (%) Inhibition ELISA after peptide pre-absorption of sera (baboon anti-Aβ antibody; peptide concentration 2 μg/mL) | Percent (%) Inhibition ELISA after peptide pre-absorption of sera (baboon anti-Aβ antibody; peptide concentration 8 μg/mL) | Percent (%) Inhibition ELISA after peptide pre-absorption of sera (baboon anti-Aβ antibody; peptide concentration 32 μg/mL) |
| --- | --- | --- | --- | --- | --- | --- | --- | --- | --- |
| 25 (YEVHHQKLVF) [Peptide 25] | 0.16 Log10 | 0.43 Log10 | 0.15 Log10 | 0.22 Log10 | – | – | – | – | – |
| 28 (HHQKLVFFAE) [Peptide 28] | 0.19 Log10 | 0.22 Log10 | 0.13 Log10 | 0.12 Log10 | – | – | – | – | – |
| 18 (EFRHDSGYEV) [Peptide 18] | 0.24 Log10 | 0.30 Log10 | 0.18 Log10 | 0.18 Log10 | – | – | – | – | – |
| 20 (RHDSGYEVHH) [Peptide 20] | 0.23 Log10 | 0.34 Log10 | 0.27 Log10 | 0.41 Log10 | – | – | – | – | – |
| 21 (HDSGYEVHHQ) [Peptide 21] | 0.21 Log10 | 0.40 Log10 | 0.18 Log10 | 1.14 Log10 | – | – | – | – | – |
| SEQ ID NO: 18: EFRHD SGYEV (EFRHDSGYEV; PEPTIDE (1)..(10) Abeta 3-12 or APP 770(E674-V683); listed as Homo sapiens) [Aβ3-12] | – | – | – | – | 1% | 0% | 0% | 0% | 3% |
| SEQ ID NO: 17: AEFRH DSGYE (AEFRHDSGYE; PEPTIDE (1)..(10) Abeta 2-11 or APP 770(A673-E682); listed as Homo sapiens) [Aβ2-11] | – | – | – | – | 0% | 0% | 0% | 6% | 19% |
| 17 (AEFRHDSGYE) [Peptide 17] | 0.25 Log10 | 0.35 Log10 | 0.25 Log10 | 0.19 Log10 | – | – | – | – | – |
| 8 (TEEISEVKMD) [Peptide 8] | 0.23 Log10 | 0.26 Log10 | 0.16 Log10 | 0.15 Log10 | – | – | – | – | – |
| 14 (VKMDAEFRHD) [Peptide 14] | 0.27 Log10 | 0.46 Log10 | 0.48 Log10 | 0.55 Log10 | – | – | – | – | – |
| 24 (GYEVHHQKLV) [Peptide 24] | 0.13 Log10 | 0.27 Log10 | 0.19 Log10 | 0.12 Log10 | – | – | – | – | – |
| 12 (SEVKMDAEFR) [Peptide 12] | 0.21 Log10 | 0.24 Log10 | 0.16 Log10 | 0.13 Log10 | – | – | – | – | – |
